The values below come from patent US10227357B2, “Compounds and methods for kinase modulation, and indications therefor” (Plexxikon Inc., priority 2012, dated 2019).

One assay deals with T1, c-kit kinase (Homo sapiens, UniProt P10721).
T1 construct: The c-kit (or kinase domain thereof) is an active kinase in AlphaScreen; poly-Histidine tag (in-house protein only) (cleaved yes); host or cells: E. coli BL21(DE3)RIL, co-expressed with PTP1B
Description: c-Kit biochemical assay, AlphaScreen, 10 μM ATP. The settings on record: c-kit biochemical inhibitory activity; read-out: Biochemical activity (IC50 μM) Kit. The gist of the method:
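His-tagged c-Kit expressed in E. coli with co-expressed PTP1B (dephosphorylated), tag removed; 0.1 ng per reaction with biotinylated-peptide substrate in 50 mM HEPES pH 7.2, 5 mM MgCl2, 5 mM MnCl2, 5% DMSO, 10 μM ATP, 1 h at room temperature. Phosphorylation detected by AlphaScreen (streptavidin donor, PY20 acceptor beads); IC50 from 8-point 1:3 dilution series.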
A general note: Alpha assays give light when donor and acceptor beads are brought close together.

The next assay concerns the target T2, c-kit mutant D816V (Homo sapiens, UniProt P10721, D816V/DEL694-753).
T2 construct: residues 551-934, kinase insertion domain residues 694-753 deleted; 6x-histidine (N); made in house; host or cells: E. coli Arctic Express (DE3) RIL (Stratagene)
The assay is described as follows: c-Kit mutant D816V biochemical assay, AlphaScreen. The settings on record: c-kit D816V biochemical inhibitory activity; read-out: Biochemical activity (IC50 μM) Kit D816V. The gist of the method: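 Purified His-tagged c-Kit D816V (E. coli-expressed) assayed in 25 mM HEPES pH 7.2 with Mg/Mn, 5% DMSO and 10 μM ATP, 30 min at room temperature, 8-point 1:3 dilutions. Phosphorylation detected by AlphaScreen with streptavidin donor and PY20 acceptor beads; IC50 from signal versus concentration.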

T1 sequence (P10721 26-976): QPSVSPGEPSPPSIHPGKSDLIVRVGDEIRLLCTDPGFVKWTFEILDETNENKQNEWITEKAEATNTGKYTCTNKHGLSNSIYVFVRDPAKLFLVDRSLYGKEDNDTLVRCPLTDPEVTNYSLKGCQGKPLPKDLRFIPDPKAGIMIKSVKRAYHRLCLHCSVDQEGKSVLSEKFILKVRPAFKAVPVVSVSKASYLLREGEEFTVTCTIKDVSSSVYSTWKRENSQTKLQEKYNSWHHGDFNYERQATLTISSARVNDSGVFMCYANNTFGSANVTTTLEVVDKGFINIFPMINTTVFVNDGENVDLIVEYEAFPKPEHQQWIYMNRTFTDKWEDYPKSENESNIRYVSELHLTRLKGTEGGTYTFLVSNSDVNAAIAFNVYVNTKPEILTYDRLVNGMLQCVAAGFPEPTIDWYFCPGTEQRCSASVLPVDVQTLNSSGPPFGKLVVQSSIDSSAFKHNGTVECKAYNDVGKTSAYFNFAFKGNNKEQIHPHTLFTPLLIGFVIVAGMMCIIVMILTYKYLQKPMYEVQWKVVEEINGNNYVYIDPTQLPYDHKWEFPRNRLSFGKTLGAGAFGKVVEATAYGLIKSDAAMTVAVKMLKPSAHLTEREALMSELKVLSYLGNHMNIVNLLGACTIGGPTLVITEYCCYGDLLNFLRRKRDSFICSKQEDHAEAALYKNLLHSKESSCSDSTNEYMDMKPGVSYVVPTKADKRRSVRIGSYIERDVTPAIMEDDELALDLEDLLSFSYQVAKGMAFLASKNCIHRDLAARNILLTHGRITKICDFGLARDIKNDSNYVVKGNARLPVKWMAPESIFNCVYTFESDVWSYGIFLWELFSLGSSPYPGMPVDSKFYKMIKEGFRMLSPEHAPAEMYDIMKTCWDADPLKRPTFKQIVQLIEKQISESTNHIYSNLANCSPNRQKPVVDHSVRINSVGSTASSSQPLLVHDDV
T2 sequence (P10721 with tags, fused parts or gaps DEL694-753/D816V): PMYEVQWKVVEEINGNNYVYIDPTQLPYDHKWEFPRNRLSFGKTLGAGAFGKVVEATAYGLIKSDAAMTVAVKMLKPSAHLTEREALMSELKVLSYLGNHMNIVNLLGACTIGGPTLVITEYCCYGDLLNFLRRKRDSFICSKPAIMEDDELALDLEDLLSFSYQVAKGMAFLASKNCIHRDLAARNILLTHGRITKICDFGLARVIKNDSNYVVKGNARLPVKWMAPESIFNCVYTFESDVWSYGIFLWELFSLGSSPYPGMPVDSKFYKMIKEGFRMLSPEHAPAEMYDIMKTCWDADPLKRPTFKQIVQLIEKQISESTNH

By IC50 is commonly meant the concentration that inhibits the measured activity by half. On to `Cc1cc2c(-c3ccc(S(=O)(=O)Nc4ccc(F)cc4)c(F)c3)ncnc2[nH]1` [P-0343, 2-fluoro-N-(4-fluorophenyl)-4-(6-methyl-7H-pyrrolo[2,3-d]pyrimidin-4-yl)benzenesulfonamide], for which the IC50 was 10 to 200 µM at c-kit kinase and 1 to 10 µM at c-kit mutant D816V.

For the compound `Cc1cc2c(-c3ccc(NS(=O)(=O)c4ccc(Cl)cc4)c(F)c3)ncnc2[nH]1` [P-0344, 4-chloro-N-[2-fluoro-4-(6-methyl-7H-pyrrolo[2,3-d]pyrimidin-4-yl)phenyl]benzenesulfonamide], the IC50 on c-kit kinase and on c-kit mutant D816V was 1 to 10 µM in each case.

Consider `Cc1cc2c(-c3ccc(NS(=O)(=O)c4cccc(Cl)c4)c(F)c3)ncnc2[nH]1` [P-0345, 3-chloro-N-[2-fluoro-4-(6-methyl-7H-pyrrolo[2,3-d]pyrimidin-4-yl)phenyl]benzenesulfonamide], for which the IC50 on c-kit kinase and on c-kit mutant D816V was 1 to 10 µM each time.

As for `Cc1cc2c(-c3ccc(NS(=O)(=O)c4ccc(F)cc4)c(F)c3)ncnc2[nH]1` [P-0346, 4-fluoro-N-[2-fluoro-4-(6-methyl-7H-pyrrolo[2,3-d]pyrimidin-4-yl)phenyl]benzenesulfonamide], the IC50 at c-kit kinase and at c-kit mutant D816V was 1 to 10 µM each time.

`Cc1cc2c(-c3ccc(NS(=O)(=O)c4cccc(F)c4)c(F)c3)ncnc2[nH]1` [P-0347, 3-fluoro-N-[2-fluoro-4-(6-methyl-7H-pyrrolo[2,3-d]pyrimidin-4-yl)phenyl]benzenesulfonamide]: the IC50 on c-kit kinase and on c-kit mutant D816V was 1 to 10 µM each time.

Turning to `Cc1cc2c(-c3ccc(NS(=O)(=O)c4ccc(Cl)cc4)cc3F)ncnc2[nH]1` [P-0349, 4-chloro-N-[3-fluoro-4-(6-methyl-7H-pyrrolo[2,3-d]pyrimidin-4-yl)phenyl]benzenesulfonamide], the IC50 on c-kit kinase and at c-kit mutant D816V was 1 to 10 µM throughout.

As for `Cc1cc2c(-c3ccc(NS(=O)(=O)c4ccc(C)c(F)c4)c(F)c3)ncnc2[nH]1` [P-0350, 3-fluoro-N-[2-fluoro-4-(6-methyl-7H-pyrrolo[2,3-d]pyrimidin-4-yl)phenyl]-4-methyl-benzenesulfonamide], the IC50 at c-kit kinase and on c-kit mutant D816V was 1 to 10 µM each time.

`Cc1cc2c(-c3ccc(NS(=O)(=O)c4cccc(Cl)c4F)c(F)c3)ncnc2[nH]1` [P-0351, 3-chloro-2-fluoro-N-[2-fluoro-4-(6-methyl-7H-pyrrolo[2,3-d]pyrimidin-4-yl)phenyl]benzenesulfonamide]: the IC50 was 1 to 10 µM on c-kit kinase and 10 to 200 µM on c-kit mutant D816V.

As for `Cc1cc2c(-c3ccc(NS(=O)(=O)c4ccc(Cl)cc4F)cc3F)ncnc2[nH]1` [P-0352, 4-chloro-2-fluoro-N-[3-fluoro-4-(6-methyl-7H-pyrrolo[2,3-d]pyrimidin-4-yl)phenyl]benzenesulfonamide], the IC50 at c-kit kinase was in the range of 0.0001 to 1 µM; on c-kit mutant D816V it was 1 to 10 µM.

Turning to `CS(=O)(=O)Nc1ccc(-c2ncnc3[nH]c(-c4ccc(F)cc4)cc23)c(F)c1F` [P-0353, N-[2,3-difluoro-4-[6-(4-fluorophenyl)-7H-pyrrolo[2,3-d]pyrimidin-4-yl]phenyl]methanesulfonamide], the IC50 lay in the range of 1 to 10 µM on c-kit kinase and 0.0001 to 1 µM on c-kit mutant D816V.

On to `O=S(=O)(NCc1ccc(F)cc1)c1ccc(-c2ncnc3[nH]c(-c4ccc(F)cc4)cc23)c(F)c1` [P-0354, 3-fluoro-N-[(4-fluorophenyl)methyl]-4-[6-(4-fluorophenyl)-7H-pyrrolo[2,3-d]pyrimidin-4-yl]benzenesulfonamide], for which the values for the IC50 on c-kit kinase and at c-kit mutant D816V were 10 to 200 µM and 0.0001 to 1 µM, respectively.

With `Cc1cc2c(-c3ccc(NS(=O)(=O)c4cccc(Cl)c4)cc3F)ncnc2[nH]1` [P-0357, 3-chloro-N-[3-fluoro-4-(6-methyl-7H-pyrrolo[2,3-d]pyrimidin-4-yl)phenyl]benzenesulfonamide], the IC50 at c-kit kinase and at c-kit mutant D816V was 1 to 10 µM in each case.

Turning to `Cc1cc2c(-c3ccc(NS(=O)(=O)c4cccc(F)c4)cc3F)ncnc2[nH]1` [P-0358, 3-fluoro-N-[3-fluoro-4-(6-methyl-7H-pyrrolo[2,3-d]pyrimidin-4-yl)phenyl]benzenesulfonamide], the IC50 at c-kit kinase and at c-kit mutant D816V was 1 to 10 µM throughout.

For `Cc1cc2c(-c3ccc(NS(=O)(=O)c4ccc(OC(F)F)cc4)c(F)c3)ncnc2[nH]1` [P-0360, 4-(difluoromethoxy)-N-[2-fluoro-4-(6-methyl-7H-pyrrolo[2,3-d]pyrimidin-4-yl)phenyl]benzenesulfonamide], the IC50 was 1 to 10 µM on c-kit kinase and 10 to 200 µM at c-kit mutant D816V.

Consider `Cc1cc2c(-c3ccc(NS(=O)(=O)c4ccc(Cl)cc4F)c(F)c3)ncnc2[nH]1` [P-0361, 4-chloro-2-fluoro-N-[2-fluoro-4-(6-methyl-7H-pyrrolo[2,3-d]pyrimidin-4-yl)phenyl]benzenesulfonamide], for which the IC50 fell in the range of 0.0001 to 1 µM on c-kit kinase and 1 to 10 µM at c-kit mutant D816V.

For the compound `Cc1cc2c(-c3ccc(NS(=O)(=O)c4ccc(F)cc4)cc3F)ncnc2[nH]1` [P-0362, 4-fluoro-N-[3-fluoro-4-(6-methyl-7H-pyrrolo[2,3-d]pyrimidin-4-yl)phenyl]benzenesulfonamide], the IC50 on c-kit kinase is 1 to 10 µM; on c-kit mutant D816V, 0.0001 to 1 µM.

For `COc1ccc(S(=O)(=O)Nc2ccc(-c3ncnc4[nH]c(C)cc34)c(F)c2)cc1` [P-0363, N-[3-fluoro-4-(6-methyl-7H-pyrrolo[2,3-d]pyrimidin-4-yl)phenyl]-4-methoxy-benzenesulfonamide], the IC50 on c-kit kinase and at c-kit mutant D816V was 1 to 10 µM each time.

Take `Cc1cc2c(-c3ccc(NS(=O)(=O)c4cccc(Cl)c4F)cc3F)ncnc2[nH]1` [P-0364, 3-chloro-2-fluoro-N-[3-fluoro-4-(6-methyl-7H-pyrrolo[2,3-d]pyrimidin-4-yl)phenyl]benzenesulfonamide]: the IC50 at c-kit kinase and on c-kit mutant D816V was 10 to 200 µM in each case.

On to `Cc1cc2c(-c3ccc(NS(=O)(=O)c4ccc(C)c(F)c4)cc3F)ncnc2[nH]1` [P-0365, 3-fluoro-N-[3-fluoro-4-(6-methyl-7H-pyrrolo[2,3-d]pyrimidin-4-yl)phenyl]-4-methyl-benzenesulfonamide], for which the IC50 on c-kit kinase lay within 10 to 200 µM; on c-kit mutant D816V, 1 to 10 µM.

Regarding `Cc1cc2c(-c3ccc(NS(=O)(=O)c4ccc(OC(F)F)cc4)cc3F)ncnc2[nH]1` [P-0366, 4-(difluoromethoxy)-N-[3-fluoro-4-(6-methyl-7H-pyrrolo[2,3-d]pyrimidin-4-yl)phenyl]benzenesulfonamide], the IC50 on c-kit kinase and at c-kit mutant D816V was 1 to 10 µM throughout.

With `[2H]C([2H])([2H])S(=O)(=O)Nc1ccc(-c2ncnc3[nH]c(-c4ccc(F)cc4)cc23)cc1F` [P-0367, 1,1,1-trideuterio-N-[2-fluoro-4-[6-(4-fluorophenyl)-7H-pyrrolo[2,3-d]pyrimidin-4-yl]phenyl]methanesulfonamide], the IC50 lay within 10 to 200 µM on c-kit kinase and 0.0001 to 1 µM on c-kit mutant D816V.

For the compound `[2H]C([2H])([2H])S(=O)(=O)Nc1ccc(-c2ncnc3[nH]c(-c4ccc(F)cc4)cc23)c(F)c1` [P-0368, 1,1,1-trideuterio-N-[3-fluoro-4-[6-(4-fluorophenyl)-7H-pyrrolo[2,3-d]pyrimidin-4-yl]phenyl]methanesulfonamide], the IC50 at c-kit kinase and at c-kit mutant D816V was 0.0001 to 1 µM throughout.

For `O=S(=O)(NCC1CC1)c1ccc(-c2ncnc3[nH]c(-c4ccc(F)cc4)cc23)c(F)c1` [P-0369, N-(cyclopropylmethyl)-3-fluoro-4-[6-(4-fluorophenyl)-7H-pyrrolo[2,3-d]pyrimidin-4-yl]benzenesulfonamide], the IC50 is 10 to 200 µM at c-kit kinase and 1 to 10 µM on c-kit mutant D816V.

Take `Cc1cc2c(-c3ccc(NS(C)(=O)=O)cc3)ncnc2[nH]1` [P-0379, N-[4-(6-methyl-7H-pyrrolo[2,3-d]pyrimidin-4-yl)phenyl]methanesulfonamide]: the IC50 lay within 10 to 200 µM on c-kit kinase and 1 to 10 µM on c-kit mutant D816V.

Consider `CCS(=O)(=O)Nc1ccc(-c2ncnc3[nH]c(-c4ccc(F)cc4)cc23)c(F)c1` [P-0381, N-[3-fluoro-4-[6-(4-fluorophenyl)-7H-pyrrolo[2,3-d]pyrimidin-4-yl]phenyl]ethanesulfonamide], for which the IC50 at c-kit kinase and at c-kit mutant D816V was 0.0001 to 1 µM each time.

In the case of `CS(=O)(=O)Nc1ccc(-c2cc3c(-c4ccc(NS(C)(=O)=O)cc4F)ncnc3[nH]2)c(F)c1` [P-0382, N-[3-fluoro-4-[4-[2-fluoro-4-(methanesulfonamido)phenyl]-7H-pyrrolo[2,3-d]pyrimidin-6-yl]phenyl]methanesulfonamide], the IC50 on c-kit kinase and on c-kit mutant D816V was 0.0001 to 1 µM in each case.

With `O=S(=O)(Nc1ccc(-c2cc3c(-c4ccc(NS(=O)(=O)C5CC5)cc4F)ncnc3[nH]2)c(F)c1)C1CC1` [P-0387, N-[4-[4-[4-(cyclopropylsulfonylamino)-2-fluoro-phenyl]-7H-pyrrolo[2,3-d]pyrimidin-6-yl]-3-fluoro-phenyl]cyclopropanesulfonamide], the IC50 at c-kit kinase lay in the range of 1 to 10 µM; at c-kit mutant D816V it was 0.0001 to 1 µM.

In the case of `CCCCS(=O)(=O)Nc1ccc(-c2cc3c(-c4ccc(NS(=O)(=O)CCCC)cc4)ncnc3[nH]2)cc1` [P-0388, N-[4-[4-[4-(butylsulfonylamino)phenyl]-7H-pyrrolo[2,3-d]pyrimidin-6-yl]phenyl]butane-1-sulfonamide], the IC50 at c-kit kinase is 10 to 200 µM; at c-kit mutant D816V it was 0.0001 to 1 µM.
